The subject of this experiment is E. coli BL21. The settings on record: BL21, 17 h. As to the method: The peptide MIC was determined via the broth microdilution assay according to the EUCAST guideline, using 96-well polystyrene flat-bottom microtiter plates (BD Biosciences). Briefly, a single colony was inoculated in 5 mL Mueller-Hinton (MH) medium and incubated, while shaking at 37°C, to the end-exponential growth phase. The bacterial culture was subsequently diluted to 0.005 McFarland (McF) (~1.5x10^6 CFU/mL) with fresh MH medium. Two-fold serial peptide-dilutions were prepared in 50 μL MH medium resulting in a concentration range of 0.75 to 100 μg/mL (at least three wells for each concentration). Afterwards, 50 μL of the freshly diluted bacterial suspension (0.005 McF) was mixed with different peptide concentrations in the 96-well plate, performed in triplicates. The plate was ultimately incubated at 37°C overnight without shaking for 17 hours. The MIC was determined as the lowest peptide concentration without visible bacterial growth.

These results are taken from article PMC10065276, “Enhanced therapeutic window for antimicrobial Pept-ins by investigating their structure-activity relationship” (PLOS ONE, 2023).

Molecules are shown by their SMILES. Residues, ends and D or L forms follow the SMILES beside them.

Regarding `CC[C@H](C)[C@H](NC(=O)CNC(=O)[C@H](CC(C)C)NC(=O)[C@H](CCCNC(=N)N)NC(=O)[C@@H]1CCCN1C(=O)[C@H](CCCNC(=N)N)NC(=O)[C@H](CCCNC(=N)N)NC(=O)[C@H](CC(C)C)NC(=O)[C@H](C)NC(=O)[C@@H](NC(=O)[C@H](C)NC(=O)[C@@H](NC(=O)CNC(=O)[C@H](C)NC(=O)[C@@H](N)CCCNC(=N)N)[C@@H](C)CC)C(C)C)C(=O)N[C@@H](C)C(=O)N[C@H](C(=O)N[C@@H](C)C(=O)N[C@@H](CC(C)C)C(=O)N[C@@H](CCCNC(=N)N)C(=O)N[C@@H](CCCNC(=N)N)C(=O)O)C(C)C` [Peptide P33-L2A] (H-RAGIAVALRRPRLGIAVALRR-OH), the “BL21 MIC” value was found to be 12.50 µg/mL.
For `CC(C)C[C@H](NC(=O)CNC(=O)[C@H](CCCNC(=N)N)NC(=O)[C@@H]1CCCN1C(=O)[C@H](CCCNC(=N)N)NC(=O)[C@H](CCCNC(=N)N)NC(=O)[C@@H](NC(=O)[C@H](CC(C)C)NC(=O)[C@H](C)NC(=O)[C@H](CC(C)C)NC(=O)CNC(=O)[C@H](CC(C)C)NC(=O)CNC(=O)[C@@H](N)CCCNC(=N)N)C(C)C)C(=O)NCC(=O)N[C@@H](CC(C)C)C(=O)N[C@@H](Cc1ccc(O)cc1)C(=O)N[C@@H](CC(C)C)C(=O)N[C@H](C(=O)N[C@@H](CCCNC(=N)N)C(=O)N[C@@H](CCCNC(=N)N)C(=O)O)C(C)C` [Peptide P2_A5Y] (H-RGLGLALVRRPRGLGLYLVRR-OH), the “BL21 MIC” value was found to be 6.25 µg/mL.
For the compound `CC(C)C[C@H](NC(=O)CNC(=O)[C@H](CCCNC(=N)N)NC(=O)[C@H](Cc1ccccc1)NC(=O)[C@H](C)NC(=O)[C@H](CCCNC(=N)N)NC(=O)[C@@H](NC(=O)[C@H](CC(C)C)NC(=O)[C@H](C)NC(=O)[C@H](CC(C)C)NC(=O)CNC(=O)[C@H](CC(C)C)NC(=O)CNC(=O)[C@@H](N)CCCNC(=N)N)C(C)C)C(=O)NCC(=O)N[C@@H](CC(C)C)C(=O)N[C@@H](C)C(=O)N[C@@H](CC(C)C)C(=O)N[C@H](C(=O)N[C@@H](C)C(=O)N[C@@H](CCCNC(=N)N)C(=O)O)C(C)C` [Peptide P2_4R_F] (H-RGLGLALVRAFRGLGLALVAR-OH), the “BL21 MIC” value is 12.50 µg/mL.
As to `CC[C@H](C)[C@H](NC(=O)CNC(=O)[C@H](C)NC(=O)[C@H](CCCNC(=N)N)NC(=O)[C@@H]1CCCN1C(=O)[C@H](CCCNC(=N)N)NC(=O)[C@H](CCCNC(=N)N)NC(=O)[C@H](CC(C)C)NC(=O)[C@H](C)NC(=O)[C@@H](NC(=O)[C@H](C)NC(=O)[C@@H](NC(=O)CNC(=O)[C@H](CC(C)C)NC(=O)[C@@H](N)CCCNC(=N)N)[C@@H](C)CC)C(C)C)C(=O)N[C@@H](C)C(=O)N[C@H](C(=O)N[C@@H](C)C(=O)N[C@@H](CC(C)C)C(=O)N[C@@H](CCCNC(=N)N)C(=O)N[C@@H](CCCNC(=N)N)C(=O)O)C(C)C` [Peptide P33-L13A] (H-RLGIAVALRRPRAGIAVALRR-OH), the “BL21 MIC” value stood at 6.25 µg/mL.
For `CC(C)C[C@H](NC(=O)CNC(=O)[C@H](CCCNC(=N)N)NC(=O)[C@@H]1CCCN1C(=O)[C@H](CCCNC(=N)N)NC(=O)[C@H](C)NC(=O)[C@@H](NC(=O)[C@H](CC(C)C)NC(=O)[C@H](C)NC(=O)[C@H](CC(C)C)NC(=O)CNC(=O)[C@H](CC(C)C)NC(=O)CNC(=O)[C@@H](N)CCCNC(=N)N)C(C)C)C(=O)NCC(=O)N[C@@H](CC(C)C)C(=O)N[C@@H](C)C(=O)N[C@@H](CC(C)C)C(=O)N[C@H](C(=O)N[C@@H](CCCNC(=N)N)C(=O)N[C@@H](CCCNC(=N)N)C(=O)O)C(C)C` [Peptide P2_R9A] (H-RGLGLALVARPRGLGLALVRR-OH), the “BL21 MIC” value amounted to 12.50 µg/mL.
With `CC(C)C[C@H](NC(=O)CNC(=O)[C@H](CCCNC(=N)N)NC(=O)[C@H](CCCNC(=N)N)NC(=O)[C@@H]1CCCN1C(=O)[C@H](CCCNC(=N)N)NC(=O)[C@@H](NC(=O)[C@H](CC(C)C)NC(=O)[C@H](C)NC(=O)[C@H](CC(C)C)NC(=O)CNC(=O)[C@H](CC(C)C)NC(=O)CNC(=O)[C@H](CCCNC(=N)N)NC(=O)[C@@H](N)CCCNC(=N)N)C(C)C)C(=O)NCC(=O)N[C@@H](CC(C)C)C(=O)N[C@@H](C)C(=O)N[C@@H](CC(C)C)C(=O)N[C@H](C(=O)N[C@@H](CCCNC(=N)N)C(=O)O)C(C)C` [Peptide P2_GK_10] (H-RRGLGLALVRPRRGLGLALVR-OH) the figure was 12.50 µg/mL; with `CC[C@H](C)[C@H](NC(=O)CNC(=O)[C@H](CC(C)C)NC(=O)[C@@H](N)CCCNC(=N)N)C(=O)N[C@@H](C)C(=O)N[C@H](C(=O)N[C@@H](C)C(=O)N[C@@H](CC(C)C)C(=O)N[C@@H](CCCNC(=N)N)C(=O)N[C@@H](CCCNC(=N)N)C(=O)N1CCC[C@H]1C(=O)N[C@@H](CCCNC(=N)N)C(=O)N[C@@H](CC(C)C)C(=O)NCC(=O)N[C@@H](C)C(=O)N[C@@H](C)C(=O)N[C@H](C(=O)N[C@@H](C)C(=O)N[C@@H](CC(C)C)C(=O)N[C@@H](CCCNC(=N)N)C(=O)N[C@@H](CCCNC(=N)N)C(=O)O)C(C)C)C(C)C` [Peptide P33-I15A] (H-RLGIAVALRRPRLGAAVALRR-OH), 12.50 µg/mL; with `CC[C@H](C)[C@H](NC(=O)CNC(=O)[C@H](CC(C)C)NC(=O)[C@H](CCCNC(=N)N)NC(=O)[C@@H]1CCCN1C(=O)[C@H](CCCNC(=N)N)NC(=O)[C@H](CCCNC(=N)N)NC(=O)[C@H](CC(C)C)NC(=O)[C@H](C)NC(=O)[C@@H](NC(=O)[C@H](C)NC(=O)[C@@H](NC(=O)CNC(=O)[C@H](CC(C)C)NC(=O)[C@H](C)N)[C@@H](C)CC)C(C)C)C(=O)N[C@@H](C)C(=O)N[C@H](C(=O)N[C@@H](C)C(=O)N[C@@H](CC(C)C)C(=O)N[C@@H](CCCNC(=N)N)C(=O)N[C@@H](CCCNC(=N)N)C(=O)O)C(C)C` [Peptide P33-R1A] (H-ALGIAVALRRPRLGIAVALRR-OH), 6.25 µg/mL.
Take `CC[C@H](C)[C@H](NC(=O)CNC(=O)[C@H](CC(C)C)NC(=O)[C@H](CCCNC(=N)N)NC(=O)[C@@H]1CCCN1C(=O)[C@H](CCCNC(=N)N)NC(=O)[C@H](CC(C)C)NC(=O)[C@H](C)NC(=O)[C@@H](NC(=O)[C@H](C)NC(=O)[C@@H](NC(=O)CNC(=O)[C@H](CC(C)C)NC(=O)[C@@H](N)CCCNC(=N)N)[C@@H](C)CC)C(C)C)C(=O)N[C@@H](C)C(=O)N[C@H](C(=O)N[C@@H](C)C(=O)N[C@@H](CC(C)C)C(=O)N[C@@H](CCCNC(=N)N)C(=O)O)C(C)C` [Peptide P33_4R_1] (H-RLGIAVALRPRLGIAVALR-OH): the “BL21 MIC” value is 6.25 µg/mL.
With `CC(C)C[C@H](NC(=O)CNC(=O)[C@H](CCCNC(=N)N)NC(=O)[C@@H]1CCCN1C(=O)[C@H](CCCNC(=N)N)NC(=O)[C@H](CCCNC(=N)N)NC(=O)[C@@H](NC(=O)[C@H](CC(C)C)NC(=O)[C@H](Cc1ccc(O)cc1)NC(=O)[C@H](CC(C)C)NC(=O)CNC(=O)[C@H](CC(C)C)NC(=O)CNC(=O)[C@@H](N)CCCNC(=N)N)C(C)C)C(=O)NCC(=O)N[C@@H](CC(C)C)C(=O)N[C@@H](Cc1ccc(O)cc1)C(=O)N[C@@H](CC(C)C)C(=O)N[C@H](C(=O)N[C@@H](CCCNC(=N)N)C(=O)N[C@@H](CCCNC(=N)N)C(=O)O)C(C)C` [A5Y (P2)] (H-RGLGLYLVRRPRGLGLYLVRR-OH) the figure was 6.25 µg/mL; with `CC[C@H](C)[C@H](NC(=O)CNC(=O)[C@H](CC(C)C)NC(=O)[C@H](C)NC(=O)[C@@H]1CCCN1C(=O)[C@H](CCCNC(=N)N)NC(=O)[C@H](C)NC(=O)[C@H](CC(C)C)NC(=O)[C@H](C)NC(=O)[C@@H](NC(=O)[C@H](C)NC(=O)[C@@H](NC(=O)CNC(=O)[C@H](CC(C)C)NC(=O)[C@@H](N)CCCNC(=N)N)[C@@H](C)CC)C(C)C)C(=O)N[C@@H](C)C(=O)N[C@H](C(=O)N[C@@H](C)C(=O)N[C@@H](CC(C)C)C(=O)N[C@@H](C)C(=O)N[C@@H](CCCNC(=N)N)C(=O)O)C(C)C` [Peptide P33_3R_3] (H-RLGIAVALARPALGIAVALAR-OH), over 100 µg/mL; with `CC(C)C[C@H](NC(=O)CNC(=O)[C@H](CCCNC(=N)N)NC(=O)[C@@H]1CCCN1C(=O)[C@H](CCCNC(=N)N)NC(=O)[C@H](CCCNC(=N)N)NC(=O)[C@@H](NC(=O)[C@H](CC(C)C)NC(=O)[C@H](C)NC(=O)[C@H](CC(C)C)NC(=O)CNC(=O)[C@H](CC(C)C)NC(=O)CNC(=O)[C@@H](N)CCCNC(=N)N)C(C)C)C(=O)NCC(=O)N[C@@H](CC(C)C)C(=O)N[C@@H](C)C(=O)N[C@@H](CC(C)C)C(=O)N[C@H](C(=O)N[C@@H](C)C(=O)N[C@@H](CCCNC(=N)N)C(=O)O)C(C)C` [Peptide P2_R20A] (H-RGLGLALVRRPRGLGLALVAR-OH), 6.25 µg/mL.
Consider `CC(C)C[C@H](NC(=O)CNC(=O)[C@H](CCCNC(=N)N)NC(=O)[C@H](C)NC(=O)[C@H](C)NC(=O)[C@H](CCCNC(=N)N)NC(=O)[C@@H](NC(=O)[C@H](CC(C)C)NC(=O)[C@H](C)NC(=O)[C@H](CC(C)C)NC(=O)CNC(=O)[C@H](CC(C)C)NC(=O)CNC(=O)[C@@H](N)CCCNC(=N)N)C(C)C)C(=O)NCC(=O)N[C@@H](CC(C)C)C(=O)N[C@@H](C)C(=O)N[C@@H](CC(C)C)C(=O)N[C@H](C(=O)N[C@@H](C)C(=O)N[C@@H](CCCNC(=N)N)C(=O)O)C(C)C` [Peptide P2_4R_A] (H-RGLGLALVRAARGLGLALVAR-OH), for which the “BL21 MIC” value was determined as 12.50 µg/mL.
Turning to `CC(C)C[C@H](NC(=O)CNC(=O)[C@H](CCCNC(=N)N)NC(=O)[C@@H]1CCCN1C(=O)[C@H](CCCNC(=N)N)NC(=O)[C@H](CCCNC(=N)N)NC(=O)[C@H](C)NC(=O)[C@H](CC(C)C)NC(=O)[C@H](C)NC(=O)[C@H](CC(C)C)NC(=O)CNC(=O)[C@H](CC(C)C)NC(=O)CNC(=O)[C@@H](N)CCCNC(=N)N)C(=O)NCC(=O)N[C@@H](CC(C)C)C(=O)N[C@@H](C)C(=O)N[C@@H](CC(C)C)C(=O)N[C@H](C(=O)N[C@@H](CCCNC(=N)N)C(=O)N[C@@H](CCCNC(=N)N)C(=O)O)C(C)C` [Peptide P2_V8A] (H-RGLGLALARRPRGLGLALVRR-OH), the “BL21 MIC” value is 25.00 µg/mL.
